Experimental data taken from patent US9328099B2, “Cyanomethylpyrazole carboxamides as janus kinase inhibitors” (Merck Sharp & Dohme Corp., priority 2011, dated 2016).

Biological target: JAK1 (Homo sapiens (Human), UniProt P23458)
Assay: Jak Biochemical HTRF Assay, JAK1
Conditions: HTRF biochemical assay, GST-tagged catalytic domain; top concentration tested […]; read-out: JAK1 IC50
Source text: Jak Biochemical HTRF Assay Protocol
Subsequent reagent additions employed an Agilent Bravo.

Sequence of JAK1 (P23458 875-1153): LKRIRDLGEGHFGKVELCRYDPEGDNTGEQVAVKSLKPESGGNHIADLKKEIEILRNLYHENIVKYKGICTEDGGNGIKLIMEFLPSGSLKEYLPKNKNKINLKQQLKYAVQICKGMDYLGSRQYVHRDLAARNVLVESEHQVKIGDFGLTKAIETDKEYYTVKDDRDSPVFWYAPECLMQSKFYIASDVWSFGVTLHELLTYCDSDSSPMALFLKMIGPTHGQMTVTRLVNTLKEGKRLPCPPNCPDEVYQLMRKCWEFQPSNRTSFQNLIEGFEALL

Compound	IC50
CC(F)(F)C(=O)N1CC[C@](CC#N)(n2cc(C(N)=O)c(Nc3ccc(F)nc3)n2)[C@H](F)C1 (single isomer, unassigned) [Example 43-3, 1-((3R,4R or 3S,4S)-4-(cyanomethyl)-1-(2,2-difluoropropanoyl)-3-fluoropiperidin-4-yl)-3-((6-fluoropyridin-3-yl)amino)-1H-pyrazole-4-carboxamide]	0.9 nM
N#CCC1(n2cc(C(N)=O)c(Nc3ccnc(F)c3)n2)CCN(C(=O)OC2CCOC2)CC1 (single isomer, unassigned) [Example 49-1, (3S or 3R)-tetrahydrofuran-3-yl 4-{4-carbamoyl-3-[(2-fluoropyridin-4-yl)amino]-1H-pyrazol-1-yl}-4-(cyanomethyl)piperidine-1-carboxylate]	0.6 nM
N#CCC1(n2cc(C(N)=O)c(Nc3ccnc(F)c3)n2)CCN(C(=O)OC2CCOC2)CC1 (single isomer, unassigned) [Example 49-2, (3S or 3R)-tetrahydrofuran-3-yl 4-{4-carbamoyl-3-[(2-fluoropyridin-4-yl)amino]-1H-pyrazol-1-yl}-4-(cyanomethyl)piperidine-1-carboxylate]	0.4 nM
CC(C)(C)OC(=O)C1CCC(CC#N)(n2cc(C(N)=O)c(Nc3ccccc3)n2)CC1 (stereo not shown) [Example 2-18, tert-butyl 4-[4-carbamoyl-3-(phenylamino)-1H-pyrazol-1-yl]-4-(cyanomethyl) cyclohexanecarboxylate]	3 nM
CC(C)(O)c1cccc(N2CCC(CC#N)(n3cc(C(N)=O)c(Nc4ccc(F)cc4)n3)CC2)n1 [Example 3-7, 1-{4-(cyanomethyl)-1-[6-(1-hydroxy-1-methylethyl)pyridin-2-yl]piperidin-4-yl}-3-[(4-fluorophenyl)amino]-1H-pyrazole-4-carboxamide]	0.3 nM
Cc1cccc(N2CCC(CC#N)(n3cc(C(N)=O)c(Nc4ccc(F)cc4)n3)CC2)n1 [Example 3-20, 1-[4-(cyanomethyl)-1-(6-methylpyridin-2-yl)piperidin-4-yl]-3-[(4-fluorophenyl)amino]-1H-pyrazole-4-carboxamide]	5 nM
N#CCC1(n2cc(C(N)=O)c(Nc3ccc(F)cc3)n2)CCN(c2cncnc2)CC1 [Example 3-24, 1-[4-(cyanomethyl)-1-pyrimidin-5-ylpiperidin-4-yl]-3-[(4-fluorophenyl)amino]-1H-pyrazole-4-carboxamide]	0.1 nM
CS(=O)(=O)c1ccc(Nc2nn(C3(CC#N)CCOCC3)cc2C(N)=O)cc1 [Example 4-5, 1-[4-(cyanomethyl)tetrahydro-2H-pyran-4-yl]-3-{[4-(methylsulfonyl)phenyl]amino}-1H-pyrazole-4-carboxamide]	22 nM
N#CCC1(n2cc(C(N)=O)c(Nc3ccc(F)cc3)n2)CCSCC1 [Example 7, 1-(4-(Cyanomethyl)tetrahydro-2H-thiopyran-4-yl)-3-((4-fluorophenyl)amino)-1H-pyrazole-4-carboxamide]	8 nM
COc1cc(Nc2nn(C3(CC#N)CCN(C(=O)OC(C)(C)C)CC3)cc2C(N)=O)ccn1 [Example 9-19, tert-butyl 4-{4-carbamoyl-3-[(2-methoxypyridin-4-yl)amino]-1H-pyrazol-1-yl}-4-(cyanomethyl)piperidine-1-carboxylate]	6 nM
CC(C)(C)OC(=O)N1CCC(CC#N)(n2cc(C(N)=O)c(Nc3ccnc(C(F)(F)F)c3)n2)CC1 [Example 9-23, tert-butyl 4-(4-carbamoyl-3-{[2-(trifluoromethyl)pyridin-4-yl]amino}-1H-pyrazol-1-yl)-4-(cyanomethyl)piperidine-1-carboxylate]	0.4 nM
N#CCC1(n2cc(C(N)=O)c(Nc3ccc(OC4CCC4)nc3)n2)CCN(C(=O)OCC(F)F)CC1 [Example 9-37, 2,2-difluoroethyl 4-(4-carbamoyl-3-{[6-(cyclobutyloxy)pyridin-3-yl]amino}-1H-pyrazol-1-yl)-4-(cyanomethyl)piperidine-1-carboxylate]	0.2 nM
N#CCC1(n2cc(C(N)=O)c(Nc3ccc(C4CC4)nc3)n2)CCN(C(=O)OCC(F)F)CC1 [Example 9-40, 2,2-difluoroethyl 4-{4-carbamoyl-3-[(6-cyclopropylpyridin-3-yl)amino]-1H-pyrazol-1-yl}-4-(cyanomethyl)piperidine-1-carboxylate]	0.7 nM
CC(C)(O)c1ccc(Nc2nn(C3(CC#N)CCN(C(=O)OCC(F)(F)F)CC3)cc2C(N)=O)cn1 [Example 10-1, 2,2,2-Trifluoroethyl 4-(4-carbamoyl-3-(6-(2-hydroxypropan-2-yl)pyridin-3-ylamino)-1H-pyrazol-1-yl)-4-(cyanomethyl)piperidine-1-carboxylate]	0.1 nM
COc1cccc(Nc2nn(C3(CC#N)CCN(C(=O)OC(C)(C)C)CC3)cc2C(N)=O)n1 [Example 13-9, tert-butyl 4-(4-carbamoyl-3-(6-methoxypyridin-2-ylamino)-1H-pyrazol-1-yl)-4-(cyanomethyl)piperidine-1-carboxylate]	10 nM
N#CCC1(n2cc(C(N)=O)c(Nc3ccccc3)n2)CCN(Cc2cccc(C#N)c2)CC1 [Example 21-3, 1-[1-(3-cyanobenzyl)-4-(cyanomethyl)piperidin-4-yl]-3-(phenylamino)-1H-pyrazole-4-carboxamide]	79 nM
N#CCC1(n2cc(C(N)=O)c(Nc3ccccc3)n2)CCN(Cc2cc3ccccc3o2)CC1 [Example 21-20, 1-[1-(1-benzofuran-2-ylmethyl)-4-(cyanomethyl)piperidin-4-yl]-3-(phenylamino)-1H-pyrazole-4-carboxamide]	10 nM
COc1ccccc1CN1CCC(CC#N)(n2cc(C(N)=O)c(Nc3ccnc(F)c3)n2)CC1 [Example 22-66, 1-[4-(cyanomethyl)-1-(2-methoxybenzyl)piperidin-4-yl]-3-[(2-fluoropyridin-4-yl)amino]-1H-pyrazole-4-carboxamide]	2 nM

Other lines, results leading:

IC50	Compound
0.05 nM	CC(F)(F)C(=O)N1CC[C@@](CC#N)(n2cc(C(N)=O)c(Nc3ccc(F)nc3)n2)[C@@H](F)C1 (single isomer, unassigned) [Example 43-4, 1-((3R,4R or 3S,4S)-4-(cyanomethyl)-1-(2,2-difluoropropanoyl)-3-fluoropiperidin-4-yl)-3-((6-fluoropyridin-3-yl)amino)-1H-pyrazole-4-carboxamide]
6 nM	N#CCC1(n2cc(C(N)=O)c(Nc3ccc(F)cc3)n2)CCN(c2cncc3ccccc23)CC1 [Example 3-2, 1-[4-(cyanomethyl)-1-isoquinolin-4-ylpiperidin-4-yl]-3-[(4-fluorophenyl)amino]-1H-pyrazole-4-carboxamide]
0.4 nM	N#CCC1(n2cc(C(N)=O)c(Nc3ccc(F)cc3)n2)CCN(c2ccc(F)nc2)CC1 [Example 3-22, 1-[4-(cyanomethyl)-1-(6-fluoropyridin-3-yl)piperidin-4-yl]-3-[(4-fluorophenyl)amino]-1H-pyrazole-4-carboxamide]
1 nM	N#CCC1(n2cc(C(N)=O)c(Nc3ccc(F)cc3)n2)CCN(c2cccc(F)c2)CC1 [Example 3-27, 1-[4-(cyanomethyl)-1-(3-fluorophenyl)piperidin-4-yl]-3-[(4-fluorophenyl)amino]-1H-pyrazole-4-carboxamide]
2 nM	CC(C)(C)OC(=O)N1CCC(CC#N)(n2cc(C(N)=O)c(Nc3ccc(S(=O)(=O)C(F)(F)F)cc3)n2)CC1 [Example 9-15, tert-butyl 4-[4-carbamoyl-3-({4-[(trifluoromethyl)sulfonyl]phenyl}amino)-1H-pyrazol-1-yl]-4-(cyanomethyl)piperidine-1-carboxylate]
0.4 nM	CC(C)(C)OC(=O)N1CCC(CC#N)(n2cc(C(N)=O)c(Nc3ccnc(C(N)=O)c3)n2)CC1 [Example 9-27, tert-butyl 4-{4-carbamoyl-3-[(2-carbamoylpyridin-4-yl)amino]-1H-pyrazol-1-yl}-4-(cyanomethyl)piperidine-1-carboxylate]
1 nM	CC(C)(C)OC(=O)N1CCC(CC#N)(n2cc(C(N)=O)c(Nc3cccc(Br)c3)n2)CC1 [Example 12-1, tert-Butyl 4-{3-[(3-bromophenyl)amino]-4-carbamoyl-1H-pyrazol-1-yl}-4-(cyanomethyl)piperidine-1-carboxylate]
4 nM	N#CCC1(n2cc(C(N)=O)c(Nc3ccnc(F)c3)n2)CCN(CCc2ccccc2)CC1 [Example 22-64, 1-[4-(cyanomethyl)-1-(2-phenylethyl)piperidin-4-yl]-3-[(2-fluoropyridin-4-yl)amino]-1H-pyrazole-4-carboxamide]
0.1 nM	N#CCC1(n2cc(C(N)=O)c(Nc3ccnc(F)c3)n2)CCN(Cc2ccc(O)nc2)CC1 [Example 22-68, 1-{4-(cyanomethyl)-1-[(6-hydroxypyridin-3-yl)methyl]piperidin-4-yl}-3-[(2-fluoropyridin-4-yl)amino]-1H-pyrazole-4-carboxamide]
6 nM	CC(OC(=O)N1CCC(CC#N)(n2cc(C(N)=O)c(Nc3ccc(F)cc3)n2)CC1)C1CC1 (stereo not shown) [Example 30-12, 1-cyclopropylethyl 4-(4-carbamoyl-3-(4-fluorophenylamino)-1H-pyrazol-1-yl)-4-(cyanomethyl)piperidine-1-carboxylate]
0.9 nM	N#CCC1(n2cc(C(N)=O)c(Nc3ccnc(F)c3)n2)CCN(C(=O)OC2CCOC2)CC1 (stereo not shown) [Example 30-16, tetrahydrofuran-3-yl 4-{4-carbamoyl-3-[(2-fluoropyridin-4-yl)amino]-1H-pyrazol-1-yl}-4-(cyanomethyl)piperidine-1-carboxylate]
0.2 nM	N#CCC1(n2cc(C(N)=O)c(Nc3ccc(S(=O)(=O)C(F)(F)F)cc3)n2)CCN(C(=O)OC2COC2)CC1 [Example 30-26, oxetan-3-yl 4-(4-carbamoyl-3-(4-(trifluoromethylsulfonyl)phenylamino)-1H-pyrazol-1-yl)-4-(cyanomethyl)piperidine-1-carboxylate]
31 nM	N#CCC1(n2cc(C(N)=O)c(Nc3ccccc3)n2)CCN(C(=O)OCCN2CCOCC2)CC1 [Example 30-41, 2-morpholin-4-ylethyl 4-[4-carbamoyl-3-(phenylamino)-1H-pyrazol-1-yl]-4-(cyanomethyl)piperidine-1-carboxylate]
